{"source": "PubChem BioAssay (NCI)", "assay_in_all_cases": "growth of human tumour cells (NCI), 48 h", "key": {"[1]": {"system": "NCI-H226 lung"}, "[2]": {"system": "NCI-H23 lung"}, "[3]": {"system": "NCI-H460 lung"}, "[4]": {"system": "NCI-H522 lung"}, "[5]": {"system": "NCI/ADR-RES ovarian"}, "[6]": {"system": "OVCAR-3 ovarian"}, "[7]": {"system": "OVCAR-4 ovarian"}, "[8]": {"system": "OVCAR-5 ovarian"}, "[9]": {"system": "OVCAR-8 ovarian"}, "[10]": {"system": "PC-3 prostate"}, "[11]": {"system": "RPMI-8226 leukemia"}, "[12]": {"system": "RXF 393 renal"}, "[13]": {"system": "SF-268 CNS"}, "[14]": {"system": "SF-295 CNS"}, "[15]": {"system": "SF-539 CNS"}, "[16]": {"system": "SK-MEL-2 melanoma"}, "[17]": {"system": "SK-MEL-28 melanoma"}, "[18]": {"system": "SK-MEL-5 melanoma"}, "[19]": {"system": "SK-OV-3 ovarian"}, "[20]": {"system": "SN12C renal"}, "[21]": {"system": "SNB-19 CNS"}, "[22]": {"system": "SNB-75 CNS"}, "[23]": {"system": "SR leukemia"}, "[24]": {"system": "SW-620 colon"}, "[25]": {"system": "T-47D breast"}, "[26]": {"system": "TK-10 renal"}, "[27]": {"system": "U251 CNS"}, "[28]": {"system": "UACC-257 melanoma"}, "[29]": {"system": "UO-31 renal"}}, "note": "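Where inhibition never reached the appropriate level, the endpoint shown equals the highest concentration tested. Otherwise, values were interpolated linearly from a five-concentration, 48-hour dose response in 96-well plates. GI50 = concentration required for 50% inhibition of growth. TGI: concentration producing complete growth inhibition.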"}
{"smiles": "COc1ccc([C@@H](O)c2cc(-c3ncnc4cc(N5CCOCC5)ccc34)c(F)cc2Cl)nn1", "values": [{"measurement": "TGI", "setting": "[1]", "result": 60.4, "unit": "µM"}, {"measurement": "GI50", "setting": "[2]", "result": 8, "unit": "µM"}, {"measurement": "TGI", "setting": "[2]", "result": 94.6, "unit": "µM"}, {"measurement": "GI50", "setting": "[3]", "result": 2.92, "unit": "µM"}, {"measurement": "TGI", "setting": "[3]", "result": 43.4, "unit": "µM"}, {"measurement": "GI50", "setting": "[4]", "result": 3.31, "unit": "µM"}, {"measurement": "TGI", "setting": "[4]", "result": 22.3, "unit": "µM"}, {"measurement": "GI50", "setting": "[5]", "result": 4.87, "unit": "µM"}, {"measurement": "TGI", "setting": "[5]", "result": 95.4, "unit": "µM"}, {"measurement": "GI50", "setting": "[6]", "result": 1.41, "unit": "µM"}, {"measurement": "TGI", "setting": "[6]", "result": 20.3, "unit": "µM"}, {"measurement": "GI50", "setting": "[7]", "result": 6.12, "unit": "µM"}, {"measurement": "TGI", "setting": "[7]", "result": "> 100", "unit": "µM"}, {"measurement": "GI50", "setting": "[8]", "result": 7.2, "unit": "µM"}, {"measurement": "TGI", "setting": "[8]", "result": "> 100", "unit": "µM"}, {"measurement": "GI50", "setting": "[9]", "result": 5.92, "unit": "µM"}, {"measurement": "TGI", "setting": "[9]", "result": 78.4, "unit": "µM"}, {"measurement": "GI50", "setting": "[10]", "result": 0.865, "unit": "µM"}, {"measurement": "TGI", "setting": "[10]", "result": 30.9, "unit": "µM"}, {"measurement": "GI50", "setting": "[11]", "result": 3.58, "unit": "µM"}, {"measurement": "TGI", "setting": "[11]", "result": 22.4, "unit": "µM"}, {"measurement": "GI50", "setting": "[12]", "result": 0.678, "unit": "µM"}, {"measurement": "TGI", "setting": "[12]", "result": 11.6, "unit": "µM"}, {"measurement": "GI50", "setting": "[13]", "result": 5.99, "unit": "µM"}, {"measurement": "TGI", "setting": "[13]", "result": "> 100", "unit": "µM"}, {"measurement": "GI50", "setting": "[14]", "result": 1.48, "unit": "µM"}, {"measurement": "TGI", "setting": "[14]", "result": 25.8, "unit": "µM"}, {"measurement": "GI50", "setting": "[15]", "result": 2.13, "unit": "µM"}, {"measurement": "TGI", "setting": "[15]", "result": 12.7, "unit": "µM"}, {"measurement": "GI50", "setting": "[16]", "result": 7.37, "unit": "µM"}, {"measurement": "TGI", "setting": "[16]", "result": 25.3, "unit": "µM"}, {"measurement": "GI50", "setting": "[17]", "result": 2.07, "unit": "µM"}, {"measurement": "TGI", "setting": "[17]", "result": 38.1, "unit": "µM"}, {"measurement": "GI50", "setting": "[18]", "result": 1.99, "unit": "µM"}, {"measurement": "TGI", "setting": "[18]", "result": 8.1, "unit": "µM"}, {"measurement": "GI50", "setting": "[19]", "result": 1.27, "unit": "µM"}, {"measurement": "TGI", "setting": "[19]", "result": 10.7, "unit": "µM"}, {"measurement": "GI50", "setting": "[20]", "result": 2.45, "unit": "µM"}, {"measurement": "TGI", "setting": "[20]", "result": "> 100", "unit": "µM"}, {"measurement": "GI50", "setting": "[21]", "result": 10.8, "unit": "µM"}, {"measurement": "TGI", "setting": "[21]", "result": "> 100", "unit": "µM"}, {"measurement": "GI50", "setting": "[22]", "result": 0.371, "unit": "µM"}, {"measurement": "TGI", "setting": "[22]", "result": 11.4, "unit": "µM"}, {"measurement": "GI50", "setting": "[23]", "result": 7.06, "unit": "µM"}, {"measurement": "TGI", "setting": "[23]", "result": 34.6, "unit": "µM"}, {"measurement": "GI50", "setting": "[24]", "result": 6.78, "unit": "µM"}, {"measurement": "TGI", "setting": "[24]", "result": 52.2, "unit": "µM"}, {"measurement": "GI50", "setting": "[25]", "result": 0.228, "unit": "µM"}, {"measurement": "TGI", "setting": "[25]", "result": 1.44, "unit": "µM"}, {"measurement": "GI50", "setting": "[26]", "result": 1.95, "unit": "µM"}, {"measurement": "TGI", "setting": "[26]", "result": 17.7, "unit": "µM"}, {"measurement": "GI50", "setting": "[27]", "result": 6.22, "unit": "µM"}, {"measurement": "TGI", "setting": "[27]", "result": 53.8, "unit": "µM"}, {"measurement": "GI50", "setting": "[28]", "result": 1.99, "unit": "µM"}, {"measurement": "TGI", "setting": "[28]", "result": 30, "unit": "µM"}, {"measurement": "GI50", "setting": "[29]", "result": 0.646, "unit": "µM"}, {"measurement": "TGI", "setting": "[29]", "result": 23, "unit": "µM"}]}
